Test results taken from US9169260B2 (MERCK SHARP & DOHME CORP., priority 2011, dated 2015).
Read-outs that look alike come from different tables or passages of the source.

Target: GST tagged IRAK-4 (Homo sapiens (Human), UniProt Q9NWZ3)
Assay: IRAK-4 Kinase Assay (IMAP fluorescence polarization)
Format: biochemical
Procedure: The kinase activity of IRAK-4 is determined by its ability to catalyze the phosphorylation of a fluorescent polypeptide substrate. The extent of phosphorylation is measured using the IMAP technology (Molecular Devices) where the phosphorylated fluorescent substrate binds to the large M(III)-based nanoparticles which reduces the rotational speed of the substrate and thus increases its fluorescent polarization (FP).
20 μl reaction mixture contains 10 mM TriHCl, pH 7.2, 0.5 nM GST tagged IRAK-4 (SignalChem), 100 nM fluorescent peptide substrate (RP7030, Molecular Devices), 100 μM ATP, 1 mM DTT, 1 mM MgCl2, and 0.01% Tween 20. The reaction is initiated by the addition of ATP. After incubation for 30 minutes at 25° C., 60 μl of Progressive IMAP Reagent (Molecular Devices) is added to stop the reaction. Change in RP7030's FP is determined by a FP reader (Analyst HT, LH, BioSystems).

[1] = 100 μM ATP, 30 minutes at 25° C., μM
[2] = 100 μM ATP, 30 minutes at 25° C.

Chain of GST tagged IRAK-4 (Q9NWZ3 whole entry): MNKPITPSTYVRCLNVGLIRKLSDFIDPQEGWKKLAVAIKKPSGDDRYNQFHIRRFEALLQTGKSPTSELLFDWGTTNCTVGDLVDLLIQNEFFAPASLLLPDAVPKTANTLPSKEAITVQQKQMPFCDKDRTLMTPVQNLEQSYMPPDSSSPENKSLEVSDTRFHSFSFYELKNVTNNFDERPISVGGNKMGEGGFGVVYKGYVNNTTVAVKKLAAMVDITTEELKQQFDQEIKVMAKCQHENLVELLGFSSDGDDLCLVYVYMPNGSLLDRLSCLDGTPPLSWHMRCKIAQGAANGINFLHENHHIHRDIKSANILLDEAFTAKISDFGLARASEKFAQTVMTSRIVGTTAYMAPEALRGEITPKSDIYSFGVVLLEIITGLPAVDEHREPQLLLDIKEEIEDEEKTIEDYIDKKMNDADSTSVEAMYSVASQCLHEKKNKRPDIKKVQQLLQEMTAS

| Compound | IC50 [1] [µM] | IC50 [2] [µM] | also measured |
| --- | --- | --- | --- |
| Cc1ccc(-n2nc(C3CCC(O)CC3)cc2NC(=O)c2cnn3cccnc23)cc1 (stereo not shown) [Example 6, N-(3-(4-hydroxycyclohexyl)-1-(p-tolyl)-1H-pyrazol-5-yl)pyrazolo[1,5-a]pyrimidine-3-carboxamide] | < 1 |  |  |
| Cc1cccc(-n2nc(C3CCN(S(=O)(=O)C4CC4)CC3)cc2NC(=O)c2cnn3cccnc23)c1 [Example 21, N-(3-(1-(cyclopropylsulfonyl)piperidin-4-yl)-1-(m-tolyl)-1H-pyrazol-5-yl)pyrazolo[1,5-a]pyrimidine-3-carboxamide] | < 1 |  |  |
| COc1ccc(-n2nc(C3CCN(S(=O)(=O)C4CC4)CC3)cc2NC(=O)c2cnn3cccnc23)cc1 [Example 24, N-(3-(1-(cyclopropylsulfonyl)piperidin-4-yl)-1-(4-methoxyphenyl)-1H-pyrazol-5-yl)pyrazolo[1,5-a]pyrimidine-3-carboxamide] |  | < 0.1 |  |
| N-(3-(1-methylpiperidin-4-yl)-1-(5-methylpyridin-2-yl)-1H-pyrazol-5-yl)pyrazolo[1,5-a]pyrimidine-3-carboxamide [Example 399] |  |  | IC50: < 0.1 µM |
| C[C@H](N)c1ccc(-n2nc(C3CCN(S(C)(=O)=O)CC3)cc2NC(=O)c2cnn3cccnc23)nc1 [Example 164, (S)—N-(1-(5-(1-aminoethyl)pyridin-2-yl)-3-(1-(methylsulfonyl)piperidin-4-yl)-1H-pyrazol-5-yl)pyrazolo[1,5-a]pyrimidine-3-carboxamide] |  | < 0.1 |  |
| O=C(Nc1cc(C2CCNCC2)nn1-c1c(F)cc(C2CC2)cc1F)c1cnn2cccnc12 [Example 77, N-(1-(4-cyclopropyl-2,6-difluorophenyl)-3-(piperidin-4-yl)-1H-pyrazol-5-yl)pyrazolo[1,5-a]pyrimidine-3-carboxamide] |  | < 0.1 |  |
| Cc1ccc(-n2nc(-c3ccc(S(=O)(=O)N4CCOCC4)cc3)cc2NC(=O)c2cnn3cccnc23)nc1 [Example 177, N-(1-(5-methylpyridin-2-yl)-3-(4-(morpholinosulfonyl)phenyl)-1H-pyrazol-5-yl)pyrazolo[1,5-a]pyrimidine-3-carboxamide] |  | < 0.1 |  |
| Cc1ccc(-n2nc(C3CCS(=O)(=O)CC3)cc2NC(=O)c2cnn3cccnc23)cc1 [Example 98, N-(3-(1,1-dioxidotetrahydro-2H-thiopyran-4-yl)-1-(p-tolyl)-1H-pyrazol-5-yl)pyrazolo[1,5-a]pyrimidine-3-carboxamide] | < 1 |  |  |
| CC(C)(N)c1ccc(-n2nc(C3CCN(S(C)(=O)=O)CC3)cc2NC(=O)c2cnn3cccnc23)nc1 [Example 159, N-(1-(5-(2-aminopropan-2-yl)pyridin-2-yl)-3-(1-(methylsulfonyl)piperidin-4-yl)-1H-pyrazol-5-yl)pyrazolo[1,5-a]pyrimidine-3-carboxamide] |  | < 0.1 |  |
| Cc1ccc(-n2nc(C3CCN(C4CCCOC4)CC3)cc2NC(=O)c2cnn3cc(Br)cnc23)cc1 (stereo not shown) [Example 109, 6-bromo-N-(3-(1-(tetrahydro-2H-pyran-3-yl)piperidin-4-yl)-1-(p-tolyl)-1H-pyrazol-5-yl)pyrazolo[1,5-a]pyrimidine-3-carboxamide] |  | < 0.1 |  |
| CNS(=O)(=O)c1ccc(-c2cc(NC(=O)c3cnn4cccnc34)n(-c3ccc(F)cc3F)n2)cc1 [Example 34, N-(1-(2,4-difluorophenyl)-3-(4-(N-methylsulfamoyl)phenyl)-1H-pyrazol-5-yl)pyrazolo[1,5-a]pyrimidine-3-carboxamide] |  | < 0.1 |  |
| Cc1ccc(-n2nc(C3COCCN3)cc2NC(=O)c2cnn3cccnc23)cc1 (stereo not shown) [Example 79, N-(3-(morpholin-3-yl)-1-(p-tolyl)-1H-pyrazol-5-yl)pyrazolo[1,5-a]pyrimidine-3-carboxamide] | < 1 |  |  |
| Cc1ccc(-n2nc(C3CCNCC3)cc2NC(=O)c2cnn3cccnc23)cc1 [Example 7, N-(3-(piperidin-4-yl)-1-(p-tolyl)-1H-pyrazol-5-yl)pyrazolo[1,5-a]pyrimidine-3-carboxamide] |  | < 0.1 |  |
| Cc1ccc(-n2nc(-c3ccc(CN4CCCC4)cc3)cc2NC(=O)c2cnn3cccnc23)cc1 [Example 143, N-(3-(4-(pyrrolidin-1-ylmethyl)phenyl)-1-(p-tolyl)-1H-pyrazol-5-yl)pyrazolo[1,5-a]pyrimidine-3-carboxamide] |  | < 0.1 |  |
| CS(=O)(=O)N1CCC(c2cc(NC(=O)c3cnn4cccnc34)n(-c3ccccn3)n2)CC1 [Example 173, N-(3-(1-(methylsulfonyl)piperidin-4-yl)-1-(pyridin-2-yl)-1H-pyrazol-5-yl)pyrazolo[1,5-a]pyrimidine-3-carboxamide] | < 1 |  |  |
| Cc1ccc(-n2nc(-c3ccc(F)cc3)cc2NC(=O)c2cnn3cccnc23)cc1 [Example 135, N-(3-(4-fluorophenyl)-1-(p-tolyl)-1H-pyrazol-5-yl)pyrazolo[1,5-a]pyrimidine-3-carboxamide] | > 1 |  |  |
| Cc1cc(F)ccc1-n1nc(C2CCNCC2)cc1NC(=O)c1cnn2cccnc12 [Example 68, N-(1-(4-fluoro-2-methylphenyl)-3-(piperidin-4-yl)-1H-pyrazol-5-yl)pyrazolo[1,5-a]pyrimidine-3-carboxamide] | > 1 |  |  |

Second part, led by results:

| IC50 [1] [µM] | IC50 [2] [µM] | Compound | also measured |
| --- | --- | --- | --- |
| > 1 |  | Cc1ccc(-n2nc(C3CCN(C4CCN(C)CC4)CC3)cc2NC(=O)c2cnn3cccnc23)cc1 [Example 205] |  |
|  | < 0.1 | Cc1ccc(-n2nc(-c3ccnc(N)c3)cc2NC(=O)c2cnn3cccnc23)cc1 [Example 355, N-[3-(2-aminopyridin-4-yl)-1-(4-methylphenyl)-1H-pyrazol-5-yl]pyrazolo[1,5-a]pyrimidine-3-carboxamide] |  |
|  | < 0.1 | Cc1ccc(-n2nc(C3CCN(C4CCC(C#N)CC4)CC3)cc2NC(=O)c2cnn3cccnc23)cc1 (stereo not shown) [Example 253, N-{3-[1-(4-cyanocyclohexyl)piperidin-4-yl]-1-(4-methylphenyl)-1H-pyrazol-5-yl}pyrazolo[1,5-a]pyrimidine-3-carboxamide] |  |
| < 1 |  | CC(=O)N1CC(N2CCC(c3cc(NC(=O)c4cnn5cccnc45)n(-c4ccc(C)cc4)n3)CC2)C1 [Example 248, N-{3-[1-(1-acetylazetidin-3-yl)piperidin-4-yl]-1-(4-methylphenyl)-1H-pyrazol-5-yl}pyrazolo pyrimidine-3-carboxamide] |  |
| < 1 |  | Cc1ccc(-n2nc(C3CCN(Cc4nccs4)CC3)cc2NC(=O)c2cnn3cccnc23)cc1 [Example 222, N-{1-(4-methylphenyl)-3-[1-(1,3-thiazol-2-ylmethyl)piperidin-4-yl]-1H-pyrazol-5-yl}pyrazolo[1,5-a]pyrimidine-3-carboxamide] |  |
| < 1 |  | Cc1ccc(-n2nc(C3CN(Cc4ccn[nH]4)C3)cc2NC(=O)c2cnn3cccnc23)cc1 [Example 306, N-{1-(4-methylphenyl)-3-[1-(1H-pyrazol-5-ylmethyl)azetidin-3-yl]-1H-pyrazol-5-yl}pyrazolo[1,5-a]pyrimidine-3-carboxamide] |  |
| < 1 |  | Cc1ccc(-n2nc(C3CCN(S(=O)(=O)c4cnn(C)c4)CC3)cc2NC(=O)c2cnn3cccnc23)cc1 [Example 375, N-[1-(4-methylphenyl)-3-{1-[(1-methyl-1H-pyrazol-4-yl)sulfonyl]piperidin-4-yl}-1H-pyrazol-5-yl]pyrazolo[1,5-a]pyrimidine-3-carboxamide] |  |
| < 1 |  | Cc1ccc(-n2nc(C3=CC(=O)N(C)CC3)cc2NC(=O)c2cnn3cccnc23)cc1 [Example 354, N-[3-(1-methyl-6-oxo-1,2,3,6-tetrahydropyridin-4-yl)-1-(4-methylphenyl)-1H-pyrazol-5-yl]pyrazolo[1,5-a]pyrimidine-3-carboxamide] |  |
| > 1 |  | Cc1ccc(-n2nc(C3CCN(S(=O)(=O)c4ccc(C(F)(F)F)cc4)CC3)cc2NC(=O)c2cnn3cccnc23)cc1 [Example 381, N-[1-(4-methylphenyl)-3-(1-{[4-(trifluoromethyl)phenyl]sulfonyl}piperidin-4-yl)-1H-pyrazol-5-yl]pyrazolo[1,5-a]pyrimidine-3-carboxamide] |  |
| < 1 |  | Cc1ccc(-n2nc(C3CCN(S(=O)(=O)c4ccccc4F)CC3)cc2NC(=O)c2cnn3cccnc23)cc1 [Example 378, N-[3-{1-[(2-fluorophenyl)sulfonyl]piperidin-4-yl}-1-(4-methylphenyl)-1H-pyrazol-5-yl]pyrazolo[1,5-a]pyrimidine-3-carboxamide] |  |
|  | < 0.1 | CNS(=O)(=O)c1ccc(-c2cc(NC(=O)c3cnn4cc(Cl)cnc34)n(-c3ccc(C)cn3)n2)cc1 [Example 196, 6-chloro-N-(1-(5-methylpyridin-2-yl)-3-(4-(N-methylsulfamoyl)phenyl)-1H-pyrazol-5-yl)pyrazolo[1,5-a]pyrimidine-3-carboxamide] |  |
| < 1 |  | Cc1ccc(-n2nc(C3CCN(S(=O)(=O)c4cccc(F)c4)CC3)cc2NC(=O)c2cnn3cccnc23)cc1 [Example 379, N-[3-{1-[(3-fluorophenyl)sulfonyl]piperidin-4-yl}-1-(4-methylphenyl)-1H-pyrazol-5-yl]pyrazolo[1,5-a]pyrimidine-3-carboxamide] |  |
|  | < 0.1 | Cc1ccc(-n2nc(-c3ccc(S(=O)(=O)N4CCN(C)CC4)cc3)cc2NC(=O)c2cnn3cccnc23)nc1 [Example 178, N-(3-(4-((4-methylpiperazin-1-yl)sulfonyl)phenyl)-1-(5-methylpyridin-2-yl)-1H-pyrazol-5-yl)pyrazolo[1,5-a]pyrimidine-3-carboxamide] |  |
| < 1 |  | Cc1ccc(-n2nc(C3CN(Cc4ncco4)C3)cc2NC(=O)c2cnn3cccnc23)cc1 [Example 316, N-{1-(4-methylphenyl)-3-[1-(1,3-oxazol-2-ylmethyl)azetidin-3-yl]-1H-pyrazol-5-yl}pyrazolo[1,5-a]pyrimidine-3-carboxamide] |  |
